PubChem BioAssay (NCI)
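Test compounds were applied to cells in 96-well plates for 48 hours at 5 doses. TGI is the concentration that stops growth completely.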

Each compound was assayed on NCI-H226 lung (assay: NCI-60 cell line screen, 48 h).

SMILES | TGI [µM]
C=CCOc1ccc(C2C(C(=O)OCC)C(=O)CC(C)(O)C2C(=O)OCC)cc1OC (stereo not drawn) | > 100
CC(C)=CCNc1ncnc2c1ncn2CCC#N | > 100
Nc1nc(Cl)cc(NCC2(CO)CCCC2)n1 | > 100

Each compound was assayed on NCI-H23 lung (assay: NCI-60 cell line screen, 48 h).

SMILES | TGI [µM]
COc1ccc2c(cnc3c4cc(OC)c(OC)cc4ccc23)c1 | > 100
Cn1c(COC(=O)Nc2ccccc2)c(COC(=O)Nc2ccccc2)c2ccc3cc(Cl)c(Cl)cc3c21 | > 75
C=CCOc1ccc(C2C(C(=O)OCC)C(=O)CC(C)(O)C2C(=O)OCC)cc1OC (stereo not drawn) | > 100
CC(C)=CCNc1ncnc2c1ncn2CCC#N | > 100
Nc1nc(Cl)cc(NCC2(CO)CCCC2)n1 | > 100

The compounds below were run on NCI/ADR-RES ovarian (assay: NCI-60 cell line screen, 48 h).

SMILES | TGI [µM]
COc1ccc2c(cnc3c4cc(OC)c(OC)cc4ccc23)c1 | > 100
Cn1c(COC(=O)Nc2ccccc2)c(COC(=O)Nc2ccccc2)c2ccc3cc(Cl)c(Cl)cc3c21 | 66.7
C=CCOc1ccc(C2C(C(=O)OCC)C(=O)CC(C)(O)C2C(=O)OCC)cc1OC (stereo not drawn) | > 100
CC(C)=CCNc1ncnc2c1ncn2CCC#N | > 100
Nc1nc(Cl)cc(NCC2(CO)CCCC2)n1 | > 100

Each compound was assayed on RXF 393 renal (assay: NCI-60 cell line screen, 48 h).

SMILES | TGI [µM]
COc1ccc2c(cnc3c4cc(OC)c(OC)cc4ccc23)c1 | > 100
Cn1c(COC(=O)Nc2ccccc2)c(COC(=O)Nc2ccccc2)c2ccc3cc(Cl)c(Cl)cc3c21 | 39.5
C=CCOc1ccc(C2C(C(=O)OCC)C(=O)CC(C)(O)C2C(=O)OCC)cc1OC (stereo not drawn) | > 100
CC(C)=CCNc1ncnc2c1ncn2CCC#N | > 100
Nc1nc(Cl)cc(NCC2(CO)CCCC2)n1 | > 100

The compounds below were run on SF-268 CNS (assay: NCI-60 cell line screen, 48 h).

SMILES | TGI [µM]
COc1ccc2c(cnc3c4cc(OC)c(OC)cc4ccc23)c1 | > 100
Cn1c(COC(=O)Nc2ccccc2)c(COC(=O)Nc2ccccc2)c2ccc3cc(Cl)c(Cl)cc3c21 | 21.9
C=CCOc1ccc(C2C(C(=O)OCC)C(=O)CC(C)(O)C2C(=O)OCC)cc1OC (stereo not drawn) | > 100
CC(C)=CCNc1ncnc2c1ncn2CCC#N | > 100
Nc1nc(Cl)cc(NCC2(CO)CCCC2)n1 | > 100

The compounds below were run on SF-295 CNS (assay: NCI-60 cell line screen, 48 h).

SMILES | TGI [µM]
COc1ccc2c(cnc3c4cc(OC)c(OC)cc4ccc23)c1 | > 100
Cn1c(COC(=O)Nc2ccccc2)c(COC(=O)Nc2ccccc2)c2ccc3cc(Cl)c(Cl)cc3c21 | 64.2
C=CCOc1ccc(C2C(C(=O)OCC)C(=O)CC(C)(O)C2C(=O)OCC)cc1OC (stereo not drawn) | > 100
CC(C)=CCNc1ncnc2c1ncn2CCC#N | > 100
Nc1nc(Cl)cc(NCC2(CO)CCCC2)n1 | > 100

What follows are compounds tested on SK-MEL-28 melanoma (assay: NCI-60 cell line screen, 48 h).

SMILES | TGI [µM]
COc1ccc2c(cnc3c4cc(OC)c(OC)cc4ccc23)c1 | > 100
Cn1c(COC(=O)Nc2ccccc2)c(COC(=O)Nc2ccccc2)c2ccc3cc(Cl)c(Cl)cc3c21 | 41.4
C=CCOc1ccc(C2C(C(=O)OCC)C(=O)CC(C)(O)C2C(=O)OCC)cc1OC (stereo not drawn) | > 100
CC(C)=CCNc1ncnc2c1ncn2CCC#N | > 100
Nc1nc(Cl)cc(NCC2(CO)CCCC2)n1 | > 100

The compounds below were run on SN12C renal (assay: NCI-60 cell line screen, 48 h).

SMILES | TGI [µM]
COc1ccc2c(cnc3c4cc(OC)c(OC)cc4ccc23)c1 | > 100
Cn1c(COC(=O)Nc2ccccc2)c(COC(=O)Nc2ccccc2)c2ccc3cc(Cl)c(Cl)cc3c21 | 16.4
C=CCOc1ccc(C2C(C(=O)OCC)C(=O)CC(C)(O)C2C(=O)OCC)cc1OC (stereo not drawn) | > 100
CC(C)=CCNc1ncnc2c1ncn2CCC#N | > 100
Nc1nc(Cl)cc(NCC2(CO)CCCC2)n1 | > 100

These compounds were tested on SW-620 colon (assay: NCI-60 cell line screen, 48 h).

SMILES | TGI [µM]
COc1ccc2c(cnc3c4cc(OC)c(OC)cc4ccc23)c1 | > 100
Cn1c(COC(=O)Nc2ccccc2)c(COC(=O)Nc2ccccc2)c2ccc3cc(Cl)c(Cl)cc3c21 | > 75
C=CCOc1ccc(C2C(C(=O)OCC)C(=O)CC(C)(O)C2C(=O)OCC)cc1OC (stereo not drawn) | > 100
CC(C)=CCNc1ncnc2c1ncn2CCC#N | > 100
Nc1nc(Cl)cc(NCC2(CO)CCCC2)n1 | > 100

Each compound was assayed on T-47D breast (assay: NCI-60 cell line screen, 48 h).

SMILES | TGI [µM]
COc1ccc2c(cnc3c4cc(OC)c(OC)cc4ccc23)c1 | > 100
Cn1c(COC(=O)Nc2ccccc2)c(COC(=O)Nc2ccccc2)c2ccc3cc(Cl)c(Cl)cc3c21 | 5.41
C=CCOc1ccc(C2C(C(=O)OCC)C(=O)CC(C)(O)C2C(=O)OCC)cc1OC (stereo not drawn) | > 100
CC(C)=CCNc1ncnc2c1ncn2CCC#N | > 100
Nc1nc(Cl)cc(NCC2(CO)CCCC2)n1 | > 100
